Measurements reported in the supplement of paper PMC11208160.

assay: recombinant UMI read abundance after kanamycin selection (control-corrected) (log10(CPM+1)); higher = more efficient recombination; extreme values may be limits of the assay; sequences stand for … in AGTGCAGAGAAAATCGGCCAGTTTTCTCTGCCTGCAGTCCGCATGCCGTGGGACCCCTTGGGTTCTAACCTGTTGCCTAGATTTATGCAGCGGACTGCCTTTCTCCCAAAGTGATAAACCGG…AGGTTGGTTTCACT; site = the 11-nt donor
Description: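 Pooled E. coli donor-specificity screen for the IS621 bridge recombinase. Each library member carries a reprogrammed 11-nt donor and a full-length LE bridge RNA expressed in cis from the natural promoter, with a paired donor-binding loop (8-nt LDG + 4-nt RDG) and a target-binding loop fixed to T5. It is co-electroporated with a T5 target plasmid; recombinase is induced with 0.07 mM IPTG and recombinants are selected on kanamycin. UMIs are counted as CPM, averaged over two biological replicates and corrected by the unselected control. Molecule = full bridge RNA written as DNA, built from the T5 scaffold: LDG = donor specificity nt 1-8, RDG = reverse complement of nt 8-11.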
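Further: IS621 bridge recombinase in Escherichia coli cells against a fixed T5 target plasmid.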

| Sequence | recombinant UMI read abundance (log10) |
| --- | --- |
| AAGTCGCCATGGACCGGTTTTCCCGGTAATCCGTATTTGGT (site AAGTCGCCTAC) | 0.0178 |
| AAGTGTGCATGGACCGGTTTTCCCGGTAATCCGTATTTGTC (site AAGTGTGCTGA) | 2.99 |
| AAGTTGTCATGGACCGGTTTTCCCGGTAATCCGTATTTGTC (site AAGTTGTCTGA) | 2.09 |
| AATAAAGCATGGACCGGTTTTCCCGGTAATCCGTATTTGGC (site AATAAAGCTGC) | 1.32 |
| AATAAGACATGGACCGGTTTTCCCGGTAATCCGTATTTGCA (site AATAAGACTTG) | 2.17 |
| AATAAGACATGGACCGGTTTTCCCGGTAATCCGTATTTGCA (site AGGAAGACTTG) | 1.4 |
| AATACTTCATGGACCGGTTTTCCCGGTAATCCGTATTTGAG (site AATACTTCTCT) | 1.6 |
| AATAGTACATGGACCGGTTTTCCCGGTAATCCGTATTTGTC (site AATAGTACTGA) | 1.89 |
| AATAGTGCATGGACCGGTTTTCCCGGTAATCCGTATTTGCC (site AATAGTGCTGG) | 1.5 |
| AATATGGCATGGACCGGTTTTCCCGGTAATCCGTATTTGCG (site AATATGGCTCG) | 1.22 |
| AATCAATCATGGACCGGTTTTCCCGGTAATCCGTATTTGCC (site AATCAATCTGG) | 1.98 |
| AATCACGCATGGACCGGTTTTCCCGGTAATCCGTATTTGGG (site AAACACGCTCC) | 0.0181 |
| AATCACGCATGGACCGGTTTTCCCGGTAATCCGTATTTGGG (site AACCACGCTCC) | 0.0334 |
| AATCACGCATGGACCGGTTTTCCCGGTAATCCGTATTTGGG (site AAGCACGCTCC) | 0.0135 |
| AATCACGCATGGACCGGTTTTCCCGGTAATCCGTATTTGGG (site AATCACGCTCC) | 0.0109 |
| AATCCATCATGGACCGGTTTTCCCGGTAATCCGTATTTGAT (site AATCCATCTAT) | 0.288 |
| AATCGAACATGGACCGGTTTTCCCGGTAATCCGTATTTGTC (site AATCGAACTGA) | 0.559 |
| AATCGGACATGGACCGGTTTTCCCGGTAATCCGTATTTGAT (site AATCGGACTAT) | 1.01 |
| AATCTCTCATGGACCGGTTTTCCCGGTAATCCGTATTTGGC (site AATCTCTCTGC) | 2.62 |
| AATCTTGCATGGACCGGTTTTCCCGGTAATCCGTATTTGTC (site AATCTTGCTGA) | 1.07 |
| AATGACCCATGGACCGGTTTTCCCGGTAATCCGTATTTGTT (site AATGACCCTAA) | 0.0112 |
| AATGACTCATGGACCGGTTTTCCCGGTAATCCGTATTTGAG (site AATGACTCTCT) | 2.08 |
| AATGACTCATGGACCGGTTTTCCCGGTAATCCGTATTTGGT (site AATGACTCTAC) | 2.1 |
| AATGCAACATGGACCGGTTTTCCCGGTAATCCGTATTTGTG (site AATGCAACTCA) | 0.302 |

| Sequence | recombinant UMI read abundance (log10) |
| --- | --- |
| AATGCACCATGGACCGGTTTTCCCGGTAATCCGTATTTGTG (site AATGCACCTCA) | 0.0217 |
| AATGCAGCATGGACCGGTTTTCCCGGTAATCCGTATTTGAA (site AATGCAGCTTT) | 0.709 |
| AATGGAACATGGACCGGTTTTCCCGGTAATCCGTATTTGCT (site AATGAAACTAG) | 0.482 |
| AATGGAACATGGACCGGTTTTCCCGGTAATCCGTATTTGCT (site AATGCAACTAG) | 1.05 |
| AATGGAACATGGACCGGTTTTCCCGGTAATCCGTATTTGCT (site AATGGAACTAG) | 2.12 |
| AATGGAACATGGACCGGTTTTCCCGGTAATCCGTATTTGCT (site AATGTAACTAG) | 1.78 |
| AATGGATCATGGACCGGTTTTCCCGGTAATCCGTATTTGAA (site AATGGATCTTT) | 2.07 |
| AATGTACCATGGACCGGTTTTCCCGGTAATCCGTATTTGCG (site AATGTACCTCG) | 0.0178 |
| AATGTCACATGGACCGGTTTTCCCGGTAATCCGTATTTGCT (site AATGTAACTAG) | 0.799 |
| AATGTCACATGGACCGGTTTTCCCGGTAATCCGTATTTGCT (site AATGTCACTAG) | 2.41 |
| AATGTCACATGGACCGGTTTTCCCGGTAATCCGTATTTGCT (site AATGTGACTAG) | 0.0645 |
| AATGTCACATGGACCGGTTTTCCCGGTAATCCGTATTTGCT (site AATGTTACTAG) | 0.647 |
| AATGTCTCATGGACCGGTTTTCCCGGTAATCCGTATTTGAC (site AATGTATCTGT) | 1.32 |
| AATGTCTCATGGACCGGTTTTCCCGGTAATCCGTATTTGAC (site AATGTCTCTGT) | 2.21 |
| AATGTCTCATGGACCGGTTTTCCCGGTAATCCGTATTTGAC (site AATGTGTCTGT) | 0 |
| AATGTCTCATGGACCGGTTTTCCCGGTAATCCGTATTTGAC (site AATGTTTCTGT) | 0 |
| AATGTGACATGGACCGGTTTTCCCGGTAATCCGTATTTGAC (site AATGTGACTGT) | 2.69 |
| AATGTGACATGGACCGGTTTTCCCGGTAATCCGTATTTGAC (site AATGTGCCTGT) | 0 |
| AATGTGACATGGACCGGTTTTCCCGGTAATCCGTATTTGAC (site AATGTGGCTGT) | 1.01 |
| AATGTGACATGGACCGGTTTTCCCGGTAATCCGTATTTGAC (site AATGTGTCTGT) | 0 |
| AATGTGGCATGGACCGGTTTTCCCGGTAATCCGTATTTGAC (site AATGTGACTGT) | 1.16 |
| AATGTGGCATGGACCGGTTTTCCCGGTAATCCGTATTTGAC (site AATGTGCCTGT) | 0.00397 |
| AATGTGGCATGGACCGGTTTTCCCGGTAATCCGTATTTGAC (site AATGTGGCTGT) | 1.81 |
| AATGTGGCATGGACCGGTTTTCCCGGTAATCCGTATTTGAC (site AATGTGTCTGT) | 0.451 |

| Sequence | recombinant UMI read abundance (log10) |
| --- | --- |
| AATGTGTCATGGACCGGTTTTCCCGGTAATCCGTATTTGGC (site AATGTGTCTGA) | 0 |
| AATGTGTCATGGACCGGTTTTCCCGGTAATCCGTATTTGGC (site AATGTGTCTGC) | 2.67 |
| AATGTGTCATGGACCGGTTTTCCCGGTAATCCGTATTTGGC (site AATGTGTCTGG) | 0.957 |
| AATGTGTCATGGACCGGTTTTCCCGGTAATCCGTATTTGGC (site AATGTGTCTGT) | 1.99 |
| AATGTTTCATGGACCGGTTTTCCCGGTAATCCGTATTTGAC (site AATGTATCTGT) | 1.73 |
| AATGTTTCATGGACCGGTTTTCCCGGTAATCCGTATTTGAC (site AATGTCTCTGT) | 0 |
| AATGTTTCATGGACCGGTTTTCCCGGTAATCCGTATTTGAC (site AATGTGTCTGT) | 0 |
| AATGTTTCATGGACCGGTTTTCCCGGTAATCCGTATTTGAC (site AATGTTTCTGT) | 0 |
| AATTAAACATGGACCGGTTTTCCCGGTAATCCGTATTTGTA (site AATTAAACTTA) | 0.643 |
| AATTAAACATGGACCGGTTTTCCCGGTAATCCGTATTTGTT (site AATTAAACTAA) | 0.00778 |
| AATTAATCATGGACCGGTTTTCCCGGTAATCCGTATTTGAT (site AATTAATCTAT) | 1.47 |
| AATTAGGCATGGACCGGTTTTCCCGGTAATCCGTATTTGGG (site AATTAGGCTCC) | 0.0811 |
| AATTATACATGGACCGGTTTTCCCGGTAATCCGTATTTGGA (site AATTATACTTC) | 0.828 |
| AATTATACATGGACCGGTTTTCCCGGTAATCCGTATTTGGA (site AATTATCCTTC) | 0.0125 |
| AATTATACATGGACCGGTTTTCCCGGTAATCCGTATTTGGA (site AATTATGCTTC) | 0.476 |
| AATTATACATGGACCGGTTTTCCCGGTAATCCGTATTTGGA (site AATTATTCTTC) | 0.335 |
| AATTATGCATGGACCGGTTTTCCCGGTAATCCGTATTTGAA (site AATTATGCTTA) | 0.0142 |
| AATTATGCATGGACCGGTTTTCCCGGTAATCCGTATTTGAA (site AATTATGCTTC) | 0.0246 |
| AATTATGCATGGACCGGTTTTCCCGGTAATCCGTATTTGAA (site AATTATGCTTG) | 0 |
| AATTATGCATGGACCGGTTTTCCCGGTAATCCGTATTTGAA (site AATTATGCTTT) | 0.313 |
| AATTATGCATGGACCGGTTTTCCCGGTAATCCGTATTTGGG (site AATTATGCTAC) | 0.00898 |
| AATTATGCATGGACCGGTTTTCCCGGTAATCCGTATTTGGG (site AATTATGCTCC) | 0.388 |
| AATTATGCATGGACCGGTTTTCCCGGTAATCCGTATTTGGG (site AATTATGCTGC) | 0 |
| AATTATGCATGGACCGGTTTTCCCGGTAATCCGTATTTGGG (site AATTATGCTTC) | 0.0224 |
